The experiment has as its system HEK293T cells. Nature of the experiment: Effect of MMEJ and NHEJ inhibitors on CRISPR-Cas-induced double-strand break repair pathways and editing efficiency (amplicon sequencing, RIMA2). It counts as cell-based. To be noted: AZD7648 (1 µM) alone and in combination with Compound 1 at indicated concentrations, CRISPR/Cas9-mediated gene targeting, FIG. 4. The method, then: The effect of inhibitors of the MMEJ and NHEJ pathways on CRISPR-Cas-induced DNA double stranded break repair pathways was examined using the process shown schematically in FIG. 2A. Briefly, HEK293T cells were seeded into a 96-well plate 20 hours before transfection with plasmids encoding SpCas9 and a guide RNA (sgRNA) targeting CD34 in the presence and absence of single-stranded oligonucleotide donor (ssDNA). Two hours prior to transfection, the cells were submitted to inhibitor treatments, including the following conditions: a) 1 μM DNAPK inhibitor AZD7648 b) 1 μM DNAPK inhibitor AZD7648 in combination with compound 1, which was titrated in a 1:2 dilution series, ranging between 10 μM and 0.01 μM and corresponding DMSO control. Seventy hours post-transfection, cell confluence and eGFP-based transfection efficiencies were determined with the Incucyte SX5. Genomic DNA was extracted and editing outcome was analysed through deep-targeted amplicon sequencing and RIMA2 analysis (FIG. 2A) to determine knock-in frequencies as well as mutagenic DNA repair events, such as NHEJ and MMEJ outcomes (FIG. 2B).

On to `CN1CCN(CCOc2ccc(-c3nc4c(OC5(C)CC5)ncnc4n3Cc3ccccc3)c(Cl)c2)CC1` [Compound 1, 9-Benzyl-8-(2-chloro-4-(2-(4-methylpiperazin-1-yl)ethoxy)phenyl)-6-(1-methylcyclopropoxy)-9H-purine], for which the “DNA double strand break repair pathway used after CRISPR/Cas gene targeting” value is “results in DNA double strand break repair by the more precise HDR pathway, and minimizes the contribution from the more error-prone MMEJ and NHEJ pathways”.

As for `Cc1cc2ncnn2cc1Nc1ncc2c(n1)n(C1CCOCC1)c(=O)n2C` [AZD7648], the “DNA double strand break repair pathway used after CRISPR/Cas gene targeting” value was “results in DNA double strand break repair by the more precise HDR pathway, and minimizes the contribution from the more error-prone MMEJ and NHEJ pathways”.

The values above are taken from patent US20260242829A1, “Use of Inhibitors to Increase Efficiency of CRISPR/Cas Insertions” (ASTRAZENECA AB, priority 2023, published 2026).
